PubChem BioAssay AID2060882 (Molecular Pharmacology Branch, DTP, NCI, 2025)

Tested on: 898857-211-R-J1-PDC complex spheroids, growth % test/control
Test: Anticancer human tumor 898857-211-R-J1-PDC patient-derived melanoma cell line growth inhibition [RAS]
Conditions: for IC50: curve of first compound; for viability, T/C: stronger effect = lower value
In short: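 Tumour cells grown as complex spheroids with HUVEC endothelial cells and mesenchymal stem cells, treated with RAS pathway inhibitor combinations. Each agent spans half-log steps from near clinical Cmax, or 10 microM where Cmax is unknown.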
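Also: spheroids exposed to compound for seven days before readout.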
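For viability, T/C in this document: 100% = DMSO vehicle control wells.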

Compound: CC(=O)OC12COC1CC(O)C1(C)C(=O)C(O)C3=C(C)C(OC(=O)C(O)C(NC(=O)OC(C)(C)C)c4ccccc4)CC(O)(C(OC(=O)c4ccccc4)C21)C3(C)C (centres undefined) + CCn1c(-c2cccnc2C(C)OC)c2c3cc(ccc31)N1CCOC(CC(NC(=O)C(C(C)C)N(C)C(=O)C3(F)CCN(C(=O)C#CC(C)(C)N(C)C)CC3)C(=O)N3CCCC(N3)C(=O)OCC(C)(C)C2)C1
- IC50 (second compound 0.000949 µM): < 31.6 nM
- IC50 (second compound 0.003 µM): < 31.6 nM
- IC50 (second compound 0.00949 µM): < 31.6 nM
- IC50 (second compound 0.03 µM): < 31.6 nM
- IC50 (second compound 0.0949 µM): < 31.6 nM
- IC50 (second compound 0.3 µM): < 31.6 nM
- viability, T/C (second compound 0.000949 µM, first compound 0.0316 µM): 10.8%
- viability, T/C (second compound 0.000949 µM, first compound 0.1 µM): 9.24%
- viability, T/C (second compound 0.000949 µM, first compound 0.316 µM): 8.35%
- viability, T/C (second compound 0.000949 µM, first compound 1 µM): 12.8%
- viability, T/C (second compound 0.000949 µM, first compound 3.16 µM): 18.6%
- viability, T/C (second compound 0.000949 µM, first compound 10 µM): 20.4%
- viability, T/C (second compound 0.003 µM, first compound 0.0316 µM): 10.1%
- viability, T/C (second compound 0.003 µM, first compound 0.1 µM): 11.5%
- viability, T/C (second compound 0.003 µM, first compound 0.316 µM): 11.4%
- viability, T/C (second compound 0.003 µM, first compound 1 µM): 12.4%
- viability, T/C (second compound 0.003 µM, first compound 3.16 µM): 14%
- viability, T/C (second compound 0.003 µM, first compound 10 µM): 20.9%
- viability, T/C (second compound 0.00949 µM, first compound 0.0316 µM): 7.95%
- viability, T/C (second compound 0.00949 µM, first compound 0.1 µM): 8.82%
- viability, T/C (second compound 0.00949 µM, first compound 0.316 µM): 13.5%
- viability, T/C (second compound 0.00949 µM, first compound 1 µM): 11.8%
- viability, T/C (second compound 0.00949 µM, first compound 3.16 µM): 12.9%
- viability, T/C (second compound 0.00949 µM, first compound 10 µM): 20.2%
- viability, T/C (second compound 0.03 µM, first compound 0.0316 µM): 8.31%
- viability, T/C (second compound 0.03 µM, first compound 0.1 µM): 10.6%
- viability, T/C (second compound 0.03 µM, first compound 0.316 µM): 9.59%
- viability, T/C (second compound 0.03 µM, first compound 1 µM): 13.5%
- viability, T/C (second compound 0.03 µM, first compound 3.16 µM): 16.6%
- viability, T/C (second compound 0.03 µM, first compound 10 µM): 15.3%
- viability, T/C (second compound 0.0949 µM, first compound 0.0316 µM): 8.5%
- viability, T/C (second compound 0.0949 µM, first compound 0.1 µM): 10.2%
- viability, T/C (second compound 0.0949 µM, first compound 0.316 µM): 10.7%
- viability, T/C (second compound 0.0949 µM, first compound 1 µM): 11.4%
- viability, T/C (second compound 0.0949 µM, first compound 3.16 µM): 15.7%
- viability, T/C (second compound 0.0949 µM, first compound 10 µM): 14.4%
- viability, T/C (second compound 0.3 µM, first compound 0.0316 µM): 8.04%
- viability, T/C (second compound 0.3 µM, first compound 0.1 µM): 7.55%
- viability, T/C (second compound 0.3 µM, first compound 0.316 µM): 8.89%
- viability, T/C (second compound 0.3 µM, first compound 1 µM): 9.35%
- viability, T/C (second compound 0.3 µM, first compound 3.16 µM): 11.3%
- viability, T/C (second compound 0.3 µM, first compound 10 µM): 7.88%

Compound: CCc1c2c(nc3ccc(O)cc13)-c1cc3c(c(=O)n1C2)COC(=O)[C@]3(O)CC + CCn1c(-c2cccnc2C(C)OC)c2c3cc(ccc31)N1CCOC(CC(NC(=O)C(C(C)C)N(C)C(=O)C3(F)CCN(C(=O)C#CC(C)(C)N(C)C)CC3)C(=O)N3CCCC(N3)C(=O)OCC(C)(C)C2)C1
- IC50 (second compound 0.000949 µM): 5.13 nM
- IC50 (second compound 0.003 µM): 4.91 nM
- IC50 (second compound 0.00949 µM): 4.21 nM
- IC50 (second compound 0.03 µM): 3.8 nM
- IC50 (second compound 0.0949 µM): 3.54 nM
- IC50 (second compound 0.3 µM): 2.75 nM
- viability, T/C (second compound 0.000949 µM, first compound 0.000949 µM): 103%
- viability, T/C (second compound 0.000949 µM, first compound 0.003 µM): 66.7%
- viability, T/C (second compound 0.000949 µM, first compound 0.00949 µM): 31.6%
- viability, T/C (second compound 0.000949 µM, first compound 0.03 µM): 10.2%
- viability, T/C (second compound 0.000949 µM, first compound 0.0949 µM): 7.77%
- viability, T/C (second compound 0.000949 µM, first compound 0.3 µM): 6.78%
- viability, T/C (second compound 0.003 µM, first compound 0.000949 µM): 92.2%
- viability, T/C (second compound 0.003 µM, first compound 0.003 µM): 64.1%
- viability, T/C (second compound 0.003 µM, first compound 0.00949 µM): 31.5%
- viability, T/C (second compound 0.003 µM, first compound 0.03 µM): 11.2%
- viability, T/C (second compound 0.003 µM, first compound 0.0949 µM): 6.86%
- viability, T/C (second compound 0.003 µM, first compound 0.3 µM): 5.62%
- viability, T/C (second compound 0.00949 µM, first compound 0.000949 µM): 91.5%
- viability, T/C (second compound 0.00949 µM, first compound 0.003 µM): 58.2%
- viability, T/C (second compound 0.00949 µM, first compound 0.00949 µM): 30.2%
- viability, T/C (second compound 0.00949 µM, first compound 0.03 µM): 11.7%
- viability, T/C (second compound 0.00949 µM, first compound 0.0949 µM): 6.64%
- viability, T/C (second compound 0.00949 µM, first compound 0.3 µM): 7.62%
- viability, T/C (second compound 0.03 µM, first compound 0.000949 µM): 88.5%
- viability, T/C (second compound 0.03 µM, first compound 0.003 µM): 55.3%
- viability, T/C (second compound 0.03 µM, first compound 0.00949 µM): 28.3%
- viability, T/C (second compound 0.03 µM, first compound 0.03 µM): 9.56%
- viability, T/C (second compound 0.03 µM, first compound 0.0949 µM): 7.6%
- viability, T/C (second compound 0.03 µM, first compound 0.3 µM): 5.55%
- viability, T/C (second compound 0.0949 µM, first compound 0.000949 µM): 77.6%
- viability, T/C (second compound 0.0949 µM, first compound 0.003 µM): 52.6%
- viability, T/C (second compound 0.0949 µM, first compound 0.00949 µM): 29.5%
- viability, T/C (second compound 0.0949 µM, first compound 0.03 µM): 8.59%
- viability, T/C (second compound 0.0949 µM, first compound 0.0949 µM): 6.88%
- viability, T/C (second compound 0.0949 µM, first compound 0.3 µM): 5.75%
- viability, T/C (second compound 0.3 µM, first compound 0.000949 µM): 65.3%
- viability, T/C (second compound 0.3 µM, first compound 0.003 µM): 48.6%
- viability, T/C (second compound 0.3 µM, first compound 0.00949 µM): 20.1%
- viability, T/C (second compound 0.3 µM, first compound 0.03 µM): 7.15%
- viability, T/C (second compound 0.3 µM, first compound 0.0949 µM): 8.16%
- viability, T/C (second compound 0.3 µM, first compound 0.3 µM): 5.2%
